Experimental data taken from publication PMC6009911, “Inhibition of human cytochromes P450 2A6 and 2A13 by flavonoids, acetylenic thiophenes and sesquiterpene lactones from Pluchea indica and Vernonia cinerea” (Journal of Enzyme Inhibition and Medicinal Chemistry, 2017).
Read-outs that look alike come from different tables or passages of the source. One block for each compound: values may come before it.

How the values were obtained:
[1] = molecular target: T1, CYP2A13 (Homo sapiens, UniProt Q16696); experiment: Inhibition of CYP2A13-mediated coumarin 7-hydroxylation, enzymatic reconstitution assay; format: biochemical; settings: for Ki: coumarin 0–40 µM
T1 construct: made in house
T1 sequence (Q16696 1-494): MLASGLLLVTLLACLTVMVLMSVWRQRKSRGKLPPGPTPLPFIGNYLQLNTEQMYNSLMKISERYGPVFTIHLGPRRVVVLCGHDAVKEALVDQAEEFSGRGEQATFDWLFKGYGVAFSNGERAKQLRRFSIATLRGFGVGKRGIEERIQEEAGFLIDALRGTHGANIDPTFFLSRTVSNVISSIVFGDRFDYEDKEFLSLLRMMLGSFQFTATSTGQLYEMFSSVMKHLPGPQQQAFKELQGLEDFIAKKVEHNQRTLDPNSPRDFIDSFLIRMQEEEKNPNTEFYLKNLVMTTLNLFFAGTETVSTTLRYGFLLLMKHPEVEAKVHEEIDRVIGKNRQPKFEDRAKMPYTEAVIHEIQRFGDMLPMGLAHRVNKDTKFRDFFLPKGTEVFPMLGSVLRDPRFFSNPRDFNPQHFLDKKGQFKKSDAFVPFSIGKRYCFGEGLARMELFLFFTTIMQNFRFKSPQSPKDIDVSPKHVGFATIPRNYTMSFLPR
Description: (§1) Inhibitory effect of plant extracts, fractions, subfractions and constituents was determined by inhibition assay on CYP2A6- and CYP2A13-mediated coumarin 7-hydroxylation. The recombinant human CYP2A6, CYP2A13 and rat NADPH-dependent cytochrome P450 oxidoreductase (CYPOR) proteins were expressed, purified, according to the methods previously described. […] Rate of 7-hydroxycoumarin product formation was measured on spectrofluorometer (Shimadzu, Kyoto, Japan) at λex = 355 nm, λem = 460 nm. Inhibition effects were determined by incubation with extracts, fractions or purified compounds with coumarin substrate in the reaction mixture and calculated as per cent relative inhibition compared with vehicle control reaction[20] and IC50 values were calculated using GraphPad Prism 5 (GraphPad Software Inc., La Jolla, CA).
(§2) MBI requires NADPH and time to generate reactive intermediate as inhibitor and ultimately inactivates the enzyme. MBI was evaluated by pre-incubation with each test inhibitor in the reaction at different time periods (0, 10, 20 and 30 min) in the presence of NADPH for time-dependent assay, as described. The apparent inactivation constants, KI and Kinact, were obtained from double reciprocal plots of kobs versus inhibitor concentrations by linear regression analysis on GraphPad Prism 5. Methoxsalen was used as a control mechanism-based inhibitor for time- and NADPH-dependent inhibition assays.

[2] = molecular target: T2, CYP2A6 (Homo sapiens, UniProt P11509); parameters: made in house; settings: ref Prasopthum et al., 2015, cited from earlier work
T2 sequence (P11509 1-494): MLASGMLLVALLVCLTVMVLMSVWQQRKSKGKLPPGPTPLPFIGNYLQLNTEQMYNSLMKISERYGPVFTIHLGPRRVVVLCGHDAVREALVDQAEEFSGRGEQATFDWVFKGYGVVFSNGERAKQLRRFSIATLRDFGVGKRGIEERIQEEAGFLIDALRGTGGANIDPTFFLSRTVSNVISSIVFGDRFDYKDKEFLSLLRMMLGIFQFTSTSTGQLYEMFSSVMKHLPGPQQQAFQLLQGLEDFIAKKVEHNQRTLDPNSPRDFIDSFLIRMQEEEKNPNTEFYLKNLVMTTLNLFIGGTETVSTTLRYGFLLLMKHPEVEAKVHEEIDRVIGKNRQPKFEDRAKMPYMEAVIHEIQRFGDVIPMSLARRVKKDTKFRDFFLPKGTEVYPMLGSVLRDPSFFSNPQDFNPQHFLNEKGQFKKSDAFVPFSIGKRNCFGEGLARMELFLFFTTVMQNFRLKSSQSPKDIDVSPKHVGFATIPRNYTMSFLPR

[3] = molecular target: T2, CYP2A6; parameters: made in house; method as in PMID 25857233; settings: cited from earlier work
[4] = molecular target: T1, CYP2A13; experiment: Mechanism-based (time- and NADPH-dependent) inactivation of CYP2A13; format: biochemical; settings: pre-incubation 0-30 min with NADPH; for KI (inactivation): read-out: CYP2A13 KI (inactivation constant)
Description: as §2

[5] = molecular target: T1, CYP2A13; experiment: Effects of trapping agents and dialysis on inactivation of CYP2A13; format: biochemical; settings: CYP2A13 inhibition reaction mixture, probe coumarin, compound 5 µM
Description: as §2
(§3) To explore whether inactivation of CYP2As by thiophenes 9–11 and of CYP2A13 by hirsutinolides 5-8 could be reversed, the removal of reversible inhibitory compounds by dialysis and addition of trapping agents (GSH, semicarbazide, catalase or potassium ferricyanide) in the inhibition reaction mixture were performed. […] Similarly, mechanism-based inactivation of both CYP2A6 and CYP2A13 by thiophenes 9–11 could not be reversed (Table 3).

[6] = molecular target: T2, CYP2A6; experiment: Inhibition of CYP2A6-mediated coumarin 7-hydroxylation, enzymatic reconstitution assay; format: biochemical; parameters: made in house; settings: for Ki: coumarin 0–40 µM
Description: as §1, §2

[7] = molecular target: T2, CYP2A6; experiment: Mechanism-based (time- and NADPH-dependent) inactivation of CYP2A6; format: biochemical; parameters: made in house; settings: human, recombinant human CYP2A6, probe coumarin, pre-incubation 0-30 min with NADPH; for KI (inactivation): read-out: CYP2A6 KI (inactivation constant)
Description: as §2

[8] = molecular target: T2, CYP2A6; experiment: Effects of trapping agents and dialysis on inactivation of CYP2A6; format: biochemical; parameters: made in house; settings: CYP2A6 inhibition reaction mixture, probe coumarin, compound 5 µM
Description: as §2, §3

[9] = molecular target: T1, CYP2A13; parameters: method as in PMID 23903410, PMID 17672516; settings: literature values; cited from earlier work
[10] = molecular target: T2, CYP2A6; settings: read-out: inactivation kinetic values (KI) against CYP2A6; literature values; cited from earlier work
[11] = 10-min pre-incubation in the presence of NADPH, read-out: IC50 CYP2A13 Pre-incubation
[12] = coincubation, coumarin 2 µM, read-out: IC50 CYP2A13 Coincubation
[13] = 10-min pre-incubation in the presence of NADPH, read-out: IC50 CYP2A6 Pre-incubation
[14] = coincubation, coumarin 2 µM, read-out: IC50 CYP2A6 Coincubation
[15] = read-out: Per cent remaining activity, 70 μM K3Fe(CN)6
[16] = read-out: Per cent remaining activity, 2 mM GSH
[17] = read-out: Per cent remaining activity, 5 mM semicarbazide
[18] = read-out: Per cent remaining activity, 2000 U catalase
[19] = read-out: Per cent remaining activity, Dialysis (+) NADPH
[20] = read-out: Per cent remaining activity, Dialysis (−) NADPH
[21] = read-out: Per cent remaining activity, Pre-incubation

IC50 [1, 11]: 170 ± 10 nM
IC50 [1, 12]: 180 ± 20 nM
Ki [1]: 70 ± 10 nM
Compound: O=c1cc(-c2ccc(O)c(O)c2)oc2cc(O)cc(O)c12 [Luteolin 2, luteolin]
IC50 [2, 13]: 1260 ± 70 nM
IC50 [2, 14]: 1380 ± 180 nM
Ki ([2]; coumarin 0–40 µM): 800 ± 60 nM
CYP2A6 Mode of inhibition [2]: Competitive^b
inhibition of CYP2A6-mediated nicotine metabolism [3]: showed inhibition

Compound: CC#CC#Cc1ccc(C#CC(O)COC(C)=O)s1 (stereo not drawn) [Thiophene 9, 2-(penta-1,3-diyn-1-yl)-5–(4-acetoxy-3-hydroxybuta-1-yn-1-yl) thiophene]
CYP2A13 Mode of inhibition [1]: Mixed type
IC50 [1, 11]: 2290 ± 340 nM
IC50 [1, 12]: 6180 ± 280 nM
Ki [1]: 2960 ± 100 nM
kinact [4]: 0.00133 s⁻¹
KI (inactivation) [4]: 970 ± 40 nM
activity at 5 µM [5, 15]: 24.9 ± 3.95%
activity at 5 µM [5, 16]: 23.2 ± 3.38%
activity at 5 µM [5, 17]: 23.2 ± 3.38%
activity at 5 µM [5, 18]: 22.1 ± 2.39%
activity at 5 µM [5, 19]: 20.9 ± 0.24%
activity at 5 µM [5, 20]: 85.3 ± 4.98%
activity at 5 µM [5, 21]: 29 ± 4.57%
CYP2A6 Mode of inhibition [6]: Mixed type
IC50 [6, 13]: 2120 ± 190 nM
IC50 [6, 14]: 6430 ± 1290 nM
Ki [6]: 3230 ± 430 nM
kinact [7]: 0.00167 s⁻¹
KI (inactivation) [7]: 880 ± 90 nM
activity at 5 µM [8, 15]: 22.7 ± 1.58%
activity at 5 µM [8, 16]: 21.6 ± 1.97%
activity at 5 µM [8, 17]: 26.8 ± 2.39%
activity at 5 µM [8, 18]: 26.9 ± 3.07%
activity at 5 µM [8, 19]: 20.1 ± 5.21%
activity at 5 µM [8, 20]: 89.3 ± 7%
activity at 5 µM [8, 21]: 30.1 ± 3.7%

Compound: CC#Cc1ccc(C#CC#CC(O)COC(C)=O)s1 (stereo not drawn) [Thiophene 10, 2-(prop-1-inyl)-5–(6-acetoxy-5-hydroxyhexa-1,3-diinyl) thiophene]
CYP2A13 Mode of inhibition [1]: Mixed type
IC50 [1, 11]: 1150 ± 880 nM
IC50 [1, 12]: 2940 ± 10 nM
Ki [1]: 1120 ± 90 nM
kinact [4]: 0.001 s⁻¹
KI (inactivation) [4]: 860 ± 90 nM
activity at 5 µM [5, 15]: 26.9 ± 1.75%
activity at 5 µM [5, 16]: 27 ± 8.11%
activity at 5 µM [5, 17]: 27 ± 8.11%
activity at 5 µM [5, 18]: 22.2 ± 2.38%
activity at 5 µM [5, 19]: 21.4 ± 3.95%
activity at 5 µM [5, 20]: 93 ± 6.58%
activity at 5 µM [5, 21]: 28.9 ± 1.25%
CYP2A6 Mode of inhibition [6]: Mixed type
IC50 [6, 13]: 2970 ± 10 nM
IC50 [6, 14]: 4440 ± 140 nM
Ki [6]: 2070 ± 230 nM
kinact [7]: 0.00183 s⁻¹
KI (inactivation) [7]: 1010 ± 70 nM
activity at 5 µM [8, 15]: 19.2 ± 1.83%
activity at 5 µM [8, 16]: 28.5 ± 1.72%
activity at 5 µM [8, 17]: 21.1 ± 3.31%
activity at 5 µM [8, 18]: 24.1 ± 4.49%
activity at 5 µM [8, 19]: 23.7 ± 2.06%
activity at 5 µM [8, 20]: 87.5 ± 9.25%
activity at 5 µM [8, 21]: 35.2 ± 3.22%

Compound: S=C=NCCCCCCc1ccccc1 [phenylhexyl isothiocyanate]
KI values against CYP2A13 [9]: 1100 nM

Compound: S=C=NCCCc1ccccc1 [phenylpropyl isothiocyanate]
KI values against CYP2A13 [9]: 140 nM

Compound: C/C=C(\C)CC/C=C(\C)C(=O)OCC(C)(C)CC1=C(O)C(=O)c2ccccc2C1=O [rhinacanthin-C, reference compound]
KI values against CYP2A13 [9]: 1680 nM
KI (inactivation) [10]: 970 nM

Compound: CC(C)(C)N=C=S [tert-butyl isothiocyanate]
KI values against CYP2A13 [9]: 4300 nM

Compound: rhinacanthin-A [reference compound]
KI values against CYP2A13 [9]: 420 nM
KI (inactivation) [10]: 690 nM

Compound: rhinacanthin-B [reference compound]
KI values against CYP2A13 [9]: 160 nM
KI (inactivation) [10]: 440 nM
